Key:
[1] = Acute toxicity (LD50, Behrens-Karber method); format: in vivo, ICR mice; details: mouse, in vivo, ip, mortality during 30 days
Procedure: Test compounds, dissolved or suspended in 0.5% aqueous CMC, were each intraperitoneally administered to ICR mice in a dose of 0.1 ml per 10 g body weight. LD50 (mg/kg) value of each test compound was calculated from the mortality of mice during 30 days by the Behrens-Karber method.

Leukemia L1210 = experiment: Activity against Leukemia L1210, intraperitoneal, increase in life span of mice; format: in vivo, female mice (BDF1 family); details: for ED (maximum ILS) / ED30: Mus musculus, L1210, ip, ip once a day for 5 successive days; for ED (maximum ILS): daily dosage giving maximum increase of life span, read-out: O.D. (optimum dosage); for ED30: daily dosage increasing average survival days by 30%, read-out: ILS30; for Survivors after 60 days / Max. ILS % / Therapeutic ratio TR: ip; for Survivors after 60 days: 6-membered group; for Max. ILS %: 60-day observation, versus control; for Therapeutic ratio TR: O.D./ILS30
Method in brief: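 Mice (female BDF1, 20–23 g) carrying 1×10^5 ip-implanted L1210 cells were given daily ip or oral doses for 5 days; ILS% came from mean survival over 60 days relative to controls.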

Structure (SMILES) | LD50 at 720 h [1] | ED (maximum ILS) (Leukemia L1210) | ED30 (Leukemia L1210) | Survivors after 60 days (Leukemia L1210) | Max. ILS % (Leukemia L1210) | Therapeutic ratio TR (Leukemia L1210)
COc1cc(CO[C@H]2O[C@H](CN(CC(C)C)C(=O)N(CCCl)N=O)[C@@H](O)[C@H](O)[C@H]2O)cc(OC)c1OC [Compound 53, 3-isobutyl-3-(3,4,5-trimethoxybenzyl α-D-glucopyranose-6-yl)-1-(2-chloroethyl)-1-nitrosourea] | 350 mg/kg | 120 mg/kg | 3.95 mg/kg | 4/6 | > 425% | 30.4
CC(C)CN(C[C@H]1O[C@H](OCc2ccccc2)[C@H](O)[C@@H](O)[C@@H]1O)C(=O)N(CCCl)N=O [Compound 54, 3-isobutyl-3-(benzyl α-D-glucopyranose-6-yl)-1-(2-chloroethyl)-1-nitrosourea] | 450 mg/kg | 150 mg/kg | 3.93 mg/kg | 4/6 | > 450% | 38.2
CCCCO[C@H]1O[C@H](CO)[C@@H](O)[C@H](O)[C@H]1N(CCCC)C(=O)N(CCCl)N=O [Compound 55, 3-n-butyl-3-(n-butyl α-D-glucopyranose-2-yl)-1-(2-chloroethyl)-1-nitrosourea] | 465 mg/kg | 180 mg/kg | 6.05 mg/kg | 3/6 | > 350% | 29.8
C=C(C)CN(C(=O)N(CCCl)N=O)[C@H]1[C@@H](OCCCC)O[C@H](CO)[C@@H](O)[C@@H]1O [Compound 56, 3-(2-methyl-2-propenyl)-3-(n-butyl α-D-glucopyranose-2-yl)-1-(2-chloroethyl)-1-nitrosourea] | 460 mg/kg | 170 mg/kg | 5.38 mg/kg | 3/6 | > 360% | 31.6
CCCCO[C@H]1O[C@H](CO)[C@@H](O)[C@H](O)[C@H]1N(CCOCCO)C(=O)N(CCCl)N=O [Compound 58, 3-[2-(2-hydroxyethoxy)ethyl]-3-(n-butyl α-D-glucopyranose-2-yl)-1-(2-chloroethyl)-1-nitrosourea] | 585 mg/kg | 190 mg/kg | 4.2 mg/kg | 4/6 | > 422% | 45.2
CCC(C)O[C@H]1O[C@H](CO)[C@@H](O)[C@H](O)[C@H]1N(CC(C)C)C(=O)N(CCCl)N=O (stereo partly drawn) [Compound 59, 3-isobutyl-3-(sec-butyl α-D-glucopyranose-2-yl)-1-(2-chloroethyl)-1-nitrosourea] | 605 mg/kg | 200 mg/kg | 5.8 mg/kg | 3/6 | > 348% | 34.5
C=C(C)CN(C(=O)N(CCCl)N=O)[C@H]1[C@@H](OC(C)CC)O[C@H](CO)[C@@H](O)[C@@H]1O (stereo partly drawn) [Compound 60, 3-(2-methyl-2-propenyl)-3-(sec-butyl α -D-glucopyranose-2-yl)-1-(2-chloroethyl)-1-nitrosourea] | 580 mg/kg | 200 mg/kg | 7.15 mg/kg | 3/6 | > 345% | 28.0
CC(C)CO[C@H]1O[C@H](CO)[C@@H](O)[C@H](O)[C@H]1N(CC(C)C)C(=O)N(CCCl)N=O [Compound 61, 3-isobutyl-3-(isobutyl α-D-glucopyranose-2-yl)-1-(2-chloroethyl)-1-nitrosourea] | 595 mg/kg | 190 mg/kg | 5.86 mg/kg | 3/6 | > 340% | 32.4
CC(C)CO[C@H]1O[C@H](CO)[C@@H](O)[C@H](O)[C@H]1N(Cc1ccccc1)C(=O)N(CCCl)N=O [Compound 62, 3-benzyl-3-(isobutyl α-D-glucopyranose-2-yl)-1-(2-chloroethyl)-1-nitrosourea] | 565 mg/kg | 200 mg/kg | 7.8 mg/kg | 3/6 | > 340% | 25.6
O=NN(CCCl)C(=O)N(CCCCO)C1C(OC2CCCCC2)OC(CO)C(O)C1O [Compound 66, 3-(4-hydroxy-n-butyl)-3-(cyclohexyl α-D-glucopyranose-2-yl)-1-(2-chloroethyl)-1-nitrosourea] | 620 mg/kg | 200 mg/kg | 8.55 mg/kg | 3/6 | > 345% | 23.4
O=NN(CCCl)C(=O)N(CCC1CCCC1)C1C(OC2CCCCC2)OC(CO)C(O)C1O [Compound 67, 3-(2-cyclopentylethyl)-3-(cyclohexyl α-D-glucopyranose-2-yl)-1-(2-chloroethyl)-1-nitrosourea] | 650 mg/kg | 200 mg/kg | 7.5 mg/kg | 3/6 | > 355% | 28.6
COCCCOC1OC(CO)C(O)C(O)C1N(CC(C)C)C(=O)N(CCCl)N=O [Compound 68, 3-isobutyl-3-(3-methoxy-n-propyl α-D-glucopyranose-2-yl)-1-(2-chloroethyl)-1-nitrosourea] | 500 mg/kg | 170 mg/kg | 4.43 mg/kg | 4/6 | > 425% | 38.4
CCOCCCOC1OC(CO)C(O)C(O)C1N(C(=O)N(CCCl)N=O)C(C)CC [Compound 69, 3-sec-butyl-3-(3-ethoxy-n-propyl α-D-glucopyranose-2-yl)-1-(2-chloroethyl)-1-nitrosourea] | 560 mg/kg |  |  | 4/6 | > 435% | 
COCC(C)OC1OC(CO)C(O)C(O)C1N(CC(C)C)C(=O)N(CCCl)N=O (stereo not drawn) [Compound 70] | 645 mg/kg | 200 mg/kg | 5.21 mg/kg | 4/6 | > 420% | 38.4
COCC(C)OC1OC(CO)C(O)C(O)C1N(CC1CC1)C(=O)N(CCCl)N=O [Compound 72, 3-cyclopropylmethyl-3-(1-methyl-2-methoxyethyl α-D-glucopyranose-2-yl)-1-(2-chloroethyl)-1-nitrosourea] | 550 mg/kg | 180 mg/kg | 4.53 mg/kg | 5/6 | > 625% | 39.7
CC(C)CN(C(=O)N(CCCl)N=O)C1C(OC2CCCCC2)OC(CO)C(O)C1O [Compound 73, 3-isobutyl-3-(cyclohexyl α-D-glucopyranose-2-yl)-1-(2-chloroethyl)-1-nitrosourea] | 670 mg/kg | 200 mg/kg | 5.38 mg/kg | 4/6 | > 420% | 37.2
CCCCN(C(=O)N(CCCl)N=O)C1C(O)C(CO)OC(OCCCOC)C1O [Compound 76, 3-n-butyl-3-(3-methoxy-n-propyl α-D-glucopyranose-3-yl)-1-(2-chloroethyl)-1-nitrosourea] | 650 mg/kg | 200 mg/kg | 5.21 mg/kg | 3/6 | > 360% | 38.4
COCCCOC1OC(CO)C(O)C(N(CC(C)C)C(=O)N(CCCl)N=O)C1O [Compound 77, 3-isobutyl-3-(3-methoxy-n-propyl α-D-glucopyranose-3-yl)-1-(2-chloroethyl)-1-nitrosourea] | 685 mg/kg | 200 mg/kg | 5.08 mg/kg | 4/6 | > 425% | 39.4
CCOCCCOC1OC(CO)C(O)C(N(CC(C)C)C(=O)N(CCCl)N=O)C1O [Compound 78, 3-isobutyl-3-(3-ethoxy-n-propyl α-D-glucopyranose-3-yl)-1-(2-chloroethyl)-1-nitrosourea] | 675 mg/kg | 200 mg/kg | 5.33 mg/kg | 3/6 | > 355% | 37.5
COCC(C)OC1OC(CO)C(O)C(N(CC(C)C)C(=O)N(CCCl)N=O)C1O [Compound 79, 3-isobutyl-3-(1-methyl-2-methoxyethyl α-D-glucopyranose-3-yl)-1-(2-chloroethyl)-1-nitrosourea] | 690 mg/kg | 200 mg/kg | 4.93 mg/kg | 4/6 | > 430% | 40.6
CCCCOC1OC(CO)C(O)C(N(C(=O)N(CCCl)N=O)C(C)CC)C1O [Compound 81, 3-sec-butyl-3-(n-butyl β-D-glucopyranose-3-yl)-1-(2-chloroethyl)-1-nitrosourea] | 580 mg/kg | 200 mg/kg | 5.8 mg/kg | 3/6 | > 360% | 34.5
CCC(C)OC1OC(CO)C(O)C(N(CC(C)C)C(=O)N(CCCl)N=O)C1O [Compound 84, 3-isobutyl-3-(sec-butyl α-D-glucopyranose-3-yl)-1-(2-chloroethyl)-1-nitrosourea] | 695 mg/kg | 220 mg/kg | 5.8 mg/kg | 3/6 | > 355% | 37.9
C=C(C)CN(C(=O)N(CCCl)N=O)C1C(O)C(CO)OC(OC(C)CC)C1O [Compound 85, 3-(2-methyl-2-propenyl)-3-(sec-butyl α-D-glucopyranose-3-yl)-1-(2-chloroethyl)-1-nitrosourea] | 685 mg/kg | 220 mg/kg | 7.25 mg/kg | 3/6 | > 360% | 30.3
